# Assay results published in US7155346B2, “Crystal structure of yqeJ and uses thereof” (Wyeth, priority 2001, dated 2006).
# T1: B. subtilis NaMN AT (yqeJ) (Bacillus subtilis, UniProt P54455)
# T1 sequence (P54455 with tags, fused parts or gaps): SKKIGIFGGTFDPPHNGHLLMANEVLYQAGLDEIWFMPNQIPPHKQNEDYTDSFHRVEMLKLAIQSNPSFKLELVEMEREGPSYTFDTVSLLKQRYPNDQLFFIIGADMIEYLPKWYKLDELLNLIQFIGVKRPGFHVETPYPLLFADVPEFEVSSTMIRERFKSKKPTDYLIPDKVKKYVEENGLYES
# Key:
# [1] = target: T1, B. subtilis NaMN AT (yqeJ); assay: Continuous coupled assay of the forward reaction (EnzChek pyrophosphate / purine nucleoside phosphorylase); assay type: biochemical; design: made in house; host or cells: E. coli BL21(DE3), vector pML208 (modified pET16b)
# Text: Continuous assay. A continuous assay to monitor the reaction in the forward direction was based upon the EnzChek pyrophosphate assay from Molecular Probes (Eugene Oreg.) In this assay, inorganic pyrophosphate produced in the forward reaction of yqeJ is cleaved by inorganic pyrophosphatase to phosphate, which is used by the second coupling enzyme, purine nucleoside phosphorylase (PNP), to convert the chromogenic substrate 2-amino-6-mercapto-7-methylpurine ribonucleoside (MESG) to ribose-1-phosphate and 2-amino-6-mercapto-7methylpurine (E360=11,000 M^−1cm^−1). The reaction conditions were 20 mM Hepes pH 7.5, 10 mM MgCl2, 0.2 mM MESG, 1 U PNP, 0.01 U inorganic pyrophosphatase, and 0.03 μg/mL yqeJ. The reaction volume was 125 μL and was carried out in a 96 well plate at room temperature using spectamax384 plus plate reader recording continuously at 360 nm (Molecular Devices, Sunnyvale Calif.). For the KM determinations, NaMN was varied from 25 to 500 μM with ATP held at 2 mM and ATP was varied from 50 to 1000 μM with NaMN held constant at 1 mM. All kinetic constants were determined from non-linear fits of the experimental data using the enzyme kinetic module of Sigmaplot 7.0 (SPSS, Inc. San Rafael Calif.). The reaction conditions were the same for the KM determinations for NMN except the MgCl2 concentration was increased to 50 mM and the yqeJ concentration was increased to 75 μg/mL due to the lower activity against this substrate. […] The data was fit to a model of substrate inhibition using the equation: v=Vmax/(1+KM/S+S/Ki). […] NMN was varied from 0.5 to 10 mM with ATP held constant at 0.6 mM. The kinetic constants of yqeJ using NMN and ATP substrates also was determined with a second coupled assay system, one coupling NAD production to its reduction by alcohol dehyrogenase. This assay was described by Balducci et al (Balducci et al, 1995a) and has been used to characterize other NMN ATase. Using this assay, very similar values of KM and Vmax for NMN were obtained as was determined with the PNP coupled assay described above. The alcohol dehyrogenase coupled assay was not suitable to assays NaMN as a substrate, presumably because NaAD is not a good substrate for alcohol dehydrogenase.
# [2] = target: T2, yqeJ NaMN AT (Bacillus subtilis, UniProt P54455); assay: Discontinuous HPLC adenylyl transferase assay; assay type: biochemical; conditions: 30 minutes, 37° C.
# T2 construct: made in house; host or cells: E. coli BL21(DE3), vector pML208 (modified pET16b)
# Protocol: FIGS. 3A, 3B, 3C and 3D provides the results of HPLC analysis of yqeJ NaMN AT adenylyl transferase activity. 0.36 mg/ml yqeJ NaMN AT was incubated with 1 mM ATP and 1 mM NaMN (3A) or 1 mM NMN (3B) for 30 minutes.
# Discontinuous HPLC assay. The discontinuous HPLC assay is based upon the assays published by Mehl et al. (12) and Balducci et al. (18). Reaction conditions were 20 mM Hepes, pH 7.4, 10 mM MgCl2, and 0.36 or 0.18 mg/ml yqeJ protein incubated at 37° C. For the forward reaction, the incubations contained 1 mM ATP and 1 mM NaMN or NMN. […] The reactants and products were separated by chromatography on a 3.9×150 mm C18 column (Novapack 5 μm, Waters Inc). Buffer A 100 mM potassium phosphate pH 7.5. Buffer B 100 mM potassium phosphate pH 7.5 in 20% MeOH. The elution conditions were: 0 to 3 min in 100% A, 3.0 to 3.1 min to 100% B, 3.1 to 7 min 100% B. The absorbance of reactants and products was detected at 254 nm.
# [3] = target: T1, B. subtilis NaMN AT (yqeJ); assay: Back reaction coupled enzyme assay (hexokinase / glucose-6-phosphate dehydrogenase)
# Text: The back reaction for yqeJ NaMN AT was monitored using the coupled enzyme assay of hexokinase and glucose-6-phosphate dehydrogenase (from yeast). […] The ATP is then used by hexokinase to phosphorylate glucose to give glucose-6-phosphate and ADP. Glucose-6-phosphate is oxidized to 6-phospho-glucono-δ-lactone by glucose-6-phosphate dehydrogenase and NADP is reduced to NADPH. The assay is followed by the absorbance of NADPH at 340 nm. Glucose-6-phosphate dehydrogenase from baker's yeast was used because this enzyme prefers NADP to NAD as a co-substrate. Assay conditions were: 20 mM HEPES pH 7.5, 50 mM MgCl2, 1 mM NaPPi, 10 mM KCl, 5 U hexokinase, 5 U glucose-6-phosphate dehydrogenase, 1 mM glucose, 0.5 mM NADP+.
# [4] = substrate: NC(=O)c1ccc[n+]([C@@H]2O[C@H](COP(=O)([O-])O)[C@@H](O)[C@H]2O)c1; assay: Continuous coupled assay of the forward reaction (EnzChek pyrophosphate / purine nucleoside phosphorylase); assay type: biochemical, Bacillus subtilis; conditions: other: forward reaction; mononucleotide substrate varied, ATP held constant (2 mM for NaMN, 0.6 mM for NMN); NMN fit to substrate inhibition equation; pH 7.5
# Text: Continuous assay. A continuous assay to monitor the reaction in the forward direction was based upon the EnzChek pyrophosphate assay from Molecular Probes (Eugene Oreg.) In this assay, inorganic pyrophosphate produced in the forward reaction of yqeJ is cleaved by inorganic pyrophosphatase to phosphate, which is used by the second coupling enzyme, purine nucleoside phosphorylase (PNP), to convert the chromogenic substrate 2-amino-6-mercapto-7-methylpurine ribonucleoside (MESG) to ribose-1-phosphate and 2-amino-6-mercapto-7methylpurine (E360=11,000 M^−1cm^−1). The reaction conditions were 20 mM Hepes pH 7.5, 10 mM MgCl2, 0.2 mM MESG, 1 U PNP, 0.01 U inorganic pyrophosphatase, and 0.03 μg/mL yqeJ. The reaction volume was 125 μL and was carried out in a 96 well plate at room temperature using spectamax384 plus plate reader recording continuously at 360 nm (Molecular Devices, Sunnyvale Calif.). […] All kinetic constants were determined from non-linear fits of the experimental data using the enzyme kinetic module of Sigmaplot 7.0 (SPSS, Inc. San Rafael Calif.). […] The kinetic constants of yqeJ using NMN and ATP substrates also was determined with a second coupled assay system, one coupling NAD production to its reduction by alcohol dehyrogenase. […] Using this assay, very similar values of KM and Vmax for NMN were obtained as was determined with the PNP coupled assay described above. […]
# [5] = substrate: O=P(O)(O)OP(=O)(O)O; assay: purified protein, by the assay type; conditions: other: back reaction; at saturating concentrations of NaAD (500 μM); pH 7.5
# [6] = substrate: NC(=O)c1ccc[n+]([C@@H]2O[C@H](COP(=O)([O-])OP(=O)(O)OC[C@H]3O[C@@H](n4cnc5c(N)ncnc54)[C@H](O)[C@@H]3O)[C@@H](O)[C@H]2O)c1; assay: purified protein, by the assay type; conditions: other: back reaction; at subsaturating concentrations of PPi (1 mM); pH 7.5
# Text: The back reaction for yqeJ NaMN AT was monitored using the coupled enzyme assay of hexokinase and glucose-6-phosphate dehydrogenase (from yeast). […] The ATP is then used by hexokinase to phosphorylate glucose to give glucose-6-phosphate and ADP. Glucose-6-phosphate is oxidized to 6-phospho-glucono-δ-lactone by glucose-6-phosphate dehydrogenase and NADP is reduced to NADPH. The assay is followed by the absorbance of NADPH at 340 nm. Glucose-6-phosphate dehydrogenase from baker's yeast was used because this enzyme prefers NADP to NAD as a co-substrate. Assay conditions were: 20 mM HEPES pH 7.5, 50 mM MgCl2, 1 mM NaPPi, 10 mM KCl, 5 U hexokinase, 5 U glucose-6-phosphate dehydrogenase, 1 mM glucose, 0.5 mM NADP+. […] At high concentration of NaPPi a precipitate was observed.
# [7] = forward reaction, at saturating concentrations of NaMN
# [8] = back reaction, at subsaturating concentrations of PPi (1 mM)
# [9] = forward reaction: 1 mM ATP and 1 mM substrate, 0.36 mg/ml yqeJ
molecule,measurement,setting,value
Nc1ncnc2c1ncn2[C@@H]1O[C@H](COP(=O)(O)OP(=O)(O)OP(=O)(O)O)[C@@H](O)[C@H]1O [ATP],Km,[1]; [7],135 µM
same,Vmax,[1]; [7],10.1 ± 0.4 µmol/min/mg
"Nc1ncnc2c1ncn2[C@@H]1O[C@H](COP(=O)(O)OP(=O)(O)OC[C@H]2O[C@@H]([n+]3cccc(C(=O)O)c3)[C@H](O)[C@@H]2O)[C@@H](O)[C@H]1O [NAAD, nicotinic acid adenine dinucleotide]","conversion of substrate by yqeJ, detected by HPLC","[2]; reverse reaction: 1 mM sodium pyrophosphate and 0.5 mM substrate, 0.18 mg/ml yqeJ",converted to NaMN and ATP
same,Km,[3]; [8],6.8 µM
same,Vmax,[3]; [8],2.8 ± 0.2 µmol/min/mg
same,preference (Vmax/KM ratio) for nicotinic acid over nicotinamide containing substrate,"[3]; reverse reaction, NaAD over NAD","2,000 to 1"
"O=C(O)c1ccc[n+]([C@@H]2O[C@H](COP(=O)(O)O)[C@@H](O)[C@H]2O)c1 [NaMN, nicotinic acid mononucleotide]",preference (Vmax/KM ratio) for nicotinic acid over nicotinamide containing substrate,"[1]; forward reaction, NaMN over NMN","12,900 to 1"
same,Vmax,"[1]; forward reaction, mononucleotide substrate varied, ATP held constant",11.1 ± 0.7 µmol/min/mg
same,Km,"[1]; forward reaction, mononucleotide substrate varied, ATP held constant (2 mM for NaMN, 0.6 mM for NMN), NMN fit to substrate inhibition equation",43 µM
same,"conversion of substrate by yqeJ, detected by HPLC",[2]; [9],formation of a new peak as detected by HPLC that eluted with the NaAD standard
"NC(=O)c1ccc[n+]([C@@H]2O[C@H](COP(=O)([O-])O)[C@@H](O)[C@H]2O)c1 [NMN, Nicotinamide Mononucleotide]",Ki,[1],17 mM
same,"conversion of substrate by yqeJ, detected by HPLC",[2]; [9],a new peak that eluted with NAD
"B. subtilis NaMN AT (yqeJ) (Bacillus subtilis subsp. subtilis str. 168) (protein, made in house; host or cells: E. coli BL21(DE3), vector pML208 (modified pET16b)) SKKIGIFGGTFDPPHNGHLLMANEVLYQAGLDEIWFMPNQIPPHKQNEDYTDSFHRVEMLKLAIQSNPSFKLELVEMEREGPSYTFDTVSLLKQRYPNDQLFFIIGADMIEYLPKWYKLDELLNLIQFIGVKRPGFHVETPYPLLFADVPEFEVSSTMIRERFKSKKPTDYLIPDKVKKYVEENGLYES",Km,[4],2300 ± 200 µM
same,Vmax,[4],0.054 µmol/min/mg
same,Km,[5],4200 ± 600 µM
same,Km,[6],1700 ± 200 µM
same,Vmax,[6],0.34 µmol/min/mg
